Legend:
[1] = target: T1, ATP-binding cassette sub-family C member 2 (Homo sapiens, UniProt Q92887); assay: (§1) TP_TRANSPORTER: Northern blot in vitro, primary hepatocytes; assay type: functional, cell-based, Hepatocyte
[2] = target: T1, ATP-binding cassette sub-family C member 2; assay: TP_TRANSPORTER: Northern blot from HepG2 cells; assay type: functional, cell-based
[3] = target: T2, Bile salt export pump (Rattus norvegicus, UniProt O70127); assay: as §1; assay type: functional, cell-based, Hepatocyte
T2 sequence (O70127 whole entry): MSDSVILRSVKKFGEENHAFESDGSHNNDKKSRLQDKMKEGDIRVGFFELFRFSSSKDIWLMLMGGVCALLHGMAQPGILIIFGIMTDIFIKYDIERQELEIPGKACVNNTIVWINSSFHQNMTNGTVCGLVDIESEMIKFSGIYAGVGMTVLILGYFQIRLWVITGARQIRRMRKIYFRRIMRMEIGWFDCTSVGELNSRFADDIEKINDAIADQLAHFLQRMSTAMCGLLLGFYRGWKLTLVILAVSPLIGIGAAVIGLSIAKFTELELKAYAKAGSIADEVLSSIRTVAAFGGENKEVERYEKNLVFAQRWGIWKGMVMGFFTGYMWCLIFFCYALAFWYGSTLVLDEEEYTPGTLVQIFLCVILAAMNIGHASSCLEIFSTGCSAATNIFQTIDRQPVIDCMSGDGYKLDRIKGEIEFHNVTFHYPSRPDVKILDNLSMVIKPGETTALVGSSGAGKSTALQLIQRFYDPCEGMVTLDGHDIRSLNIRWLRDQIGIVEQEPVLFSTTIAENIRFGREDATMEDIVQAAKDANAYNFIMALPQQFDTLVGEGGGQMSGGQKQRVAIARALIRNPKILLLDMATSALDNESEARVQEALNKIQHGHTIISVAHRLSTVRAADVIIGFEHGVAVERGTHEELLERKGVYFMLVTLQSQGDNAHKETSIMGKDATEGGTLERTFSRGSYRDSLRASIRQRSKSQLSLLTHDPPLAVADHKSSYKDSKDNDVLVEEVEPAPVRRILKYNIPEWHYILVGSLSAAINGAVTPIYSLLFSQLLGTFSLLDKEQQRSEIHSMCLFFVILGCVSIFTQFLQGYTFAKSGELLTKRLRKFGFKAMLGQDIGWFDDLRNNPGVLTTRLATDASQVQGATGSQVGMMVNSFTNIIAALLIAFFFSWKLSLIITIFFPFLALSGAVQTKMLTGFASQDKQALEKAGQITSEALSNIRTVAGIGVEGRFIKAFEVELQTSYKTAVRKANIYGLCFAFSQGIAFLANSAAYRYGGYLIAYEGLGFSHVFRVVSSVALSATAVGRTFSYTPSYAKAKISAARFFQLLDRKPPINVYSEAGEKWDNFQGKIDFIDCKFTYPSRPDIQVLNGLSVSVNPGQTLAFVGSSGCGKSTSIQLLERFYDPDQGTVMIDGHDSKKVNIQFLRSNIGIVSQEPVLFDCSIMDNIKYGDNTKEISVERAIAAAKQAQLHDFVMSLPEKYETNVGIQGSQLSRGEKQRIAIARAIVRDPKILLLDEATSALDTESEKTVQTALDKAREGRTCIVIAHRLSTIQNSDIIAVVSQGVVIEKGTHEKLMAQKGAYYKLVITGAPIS

[4] = target: ATP-binding cassette sub-family C member 2 (Mus musculus, UniProt Q8VI47); assay: as §1; assay type: functional, cell-based, Hepatocyte
Sequence of ATP-binding cassette sub-family C member 2 (Mus musculus, UniProt Q8VI47) (Q8VI47 whole entry): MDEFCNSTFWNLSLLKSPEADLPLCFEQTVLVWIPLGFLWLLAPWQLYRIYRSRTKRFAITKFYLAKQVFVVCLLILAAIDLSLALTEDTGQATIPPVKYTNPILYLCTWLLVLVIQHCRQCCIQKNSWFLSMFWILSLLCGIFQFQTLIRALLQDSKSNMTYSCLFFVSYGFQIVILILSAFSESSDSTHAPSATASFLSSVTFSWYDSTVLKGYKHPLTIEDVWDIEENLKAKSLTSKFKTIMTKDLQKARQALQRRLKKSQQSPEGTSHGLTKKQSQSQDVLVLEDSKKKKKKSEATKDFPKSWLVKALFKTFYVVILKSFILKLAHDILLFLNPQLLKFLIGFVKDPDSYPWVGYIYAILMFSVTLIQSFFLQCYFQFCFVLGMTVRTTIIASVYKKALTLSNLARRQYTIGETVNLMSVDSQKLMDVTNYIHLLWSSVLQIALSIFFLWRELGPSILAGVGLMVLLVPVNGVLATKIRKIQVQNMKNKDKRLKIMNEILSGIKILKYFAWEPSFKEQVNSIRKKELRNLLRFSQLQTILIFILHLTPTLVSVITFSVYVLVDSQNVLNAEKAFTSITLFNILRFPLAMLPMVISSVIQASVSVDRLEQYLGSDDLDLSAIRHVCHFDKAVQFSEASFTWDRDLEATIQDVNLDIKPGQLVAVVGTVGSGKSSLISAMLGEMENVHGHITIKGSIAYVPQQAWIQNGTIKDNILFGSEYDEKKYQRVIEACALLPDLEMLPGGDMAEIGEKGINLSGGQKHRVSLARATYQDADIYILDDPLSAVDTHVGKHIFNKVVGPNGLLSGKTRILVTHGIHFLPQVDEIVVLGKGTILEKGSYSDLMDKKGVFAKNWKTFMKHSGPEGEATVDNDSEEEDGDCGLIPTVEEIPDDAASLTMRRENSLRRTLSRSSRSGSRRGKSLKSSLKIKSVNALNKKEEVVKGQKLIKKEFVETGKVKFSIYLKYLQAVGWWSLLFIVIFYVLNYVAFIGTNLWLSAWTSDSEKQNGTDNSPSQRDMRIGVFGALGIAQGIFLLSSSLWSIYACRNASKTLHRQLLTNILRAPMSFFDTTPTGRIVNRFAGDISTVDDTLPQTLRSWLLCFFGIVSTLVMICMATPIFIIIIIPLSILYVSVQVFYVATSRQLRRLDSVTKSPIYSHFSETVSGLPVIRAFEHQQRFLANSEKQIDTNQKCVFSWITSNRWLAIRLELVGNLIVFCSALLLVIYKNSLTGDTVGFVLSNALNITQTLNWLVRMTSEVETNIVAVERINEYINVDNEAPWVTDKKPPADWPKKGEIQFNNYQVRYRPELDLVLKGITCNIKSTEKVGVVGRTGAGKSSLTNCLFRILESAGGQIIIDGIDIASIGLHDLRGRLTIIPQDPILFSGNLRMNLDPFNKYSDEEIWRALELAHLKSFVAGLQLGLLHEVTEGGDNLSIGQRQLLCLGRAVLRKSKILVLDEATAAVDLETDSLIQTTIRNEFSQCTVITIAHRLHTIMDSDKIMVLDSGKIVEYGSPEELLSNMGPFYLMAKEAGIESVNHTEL

[5] = target: ATP-binding cassette sub-family C member 2 (Rattus norvegicus, UniProt Q63120); assay: as §1; assay type: functional, cell-based, Hepatocyte
Sequence of ATP-binding cassette sub-family C member 2 (Rattus norvegicus, UniProt Q63120) (Q63120 whole entry): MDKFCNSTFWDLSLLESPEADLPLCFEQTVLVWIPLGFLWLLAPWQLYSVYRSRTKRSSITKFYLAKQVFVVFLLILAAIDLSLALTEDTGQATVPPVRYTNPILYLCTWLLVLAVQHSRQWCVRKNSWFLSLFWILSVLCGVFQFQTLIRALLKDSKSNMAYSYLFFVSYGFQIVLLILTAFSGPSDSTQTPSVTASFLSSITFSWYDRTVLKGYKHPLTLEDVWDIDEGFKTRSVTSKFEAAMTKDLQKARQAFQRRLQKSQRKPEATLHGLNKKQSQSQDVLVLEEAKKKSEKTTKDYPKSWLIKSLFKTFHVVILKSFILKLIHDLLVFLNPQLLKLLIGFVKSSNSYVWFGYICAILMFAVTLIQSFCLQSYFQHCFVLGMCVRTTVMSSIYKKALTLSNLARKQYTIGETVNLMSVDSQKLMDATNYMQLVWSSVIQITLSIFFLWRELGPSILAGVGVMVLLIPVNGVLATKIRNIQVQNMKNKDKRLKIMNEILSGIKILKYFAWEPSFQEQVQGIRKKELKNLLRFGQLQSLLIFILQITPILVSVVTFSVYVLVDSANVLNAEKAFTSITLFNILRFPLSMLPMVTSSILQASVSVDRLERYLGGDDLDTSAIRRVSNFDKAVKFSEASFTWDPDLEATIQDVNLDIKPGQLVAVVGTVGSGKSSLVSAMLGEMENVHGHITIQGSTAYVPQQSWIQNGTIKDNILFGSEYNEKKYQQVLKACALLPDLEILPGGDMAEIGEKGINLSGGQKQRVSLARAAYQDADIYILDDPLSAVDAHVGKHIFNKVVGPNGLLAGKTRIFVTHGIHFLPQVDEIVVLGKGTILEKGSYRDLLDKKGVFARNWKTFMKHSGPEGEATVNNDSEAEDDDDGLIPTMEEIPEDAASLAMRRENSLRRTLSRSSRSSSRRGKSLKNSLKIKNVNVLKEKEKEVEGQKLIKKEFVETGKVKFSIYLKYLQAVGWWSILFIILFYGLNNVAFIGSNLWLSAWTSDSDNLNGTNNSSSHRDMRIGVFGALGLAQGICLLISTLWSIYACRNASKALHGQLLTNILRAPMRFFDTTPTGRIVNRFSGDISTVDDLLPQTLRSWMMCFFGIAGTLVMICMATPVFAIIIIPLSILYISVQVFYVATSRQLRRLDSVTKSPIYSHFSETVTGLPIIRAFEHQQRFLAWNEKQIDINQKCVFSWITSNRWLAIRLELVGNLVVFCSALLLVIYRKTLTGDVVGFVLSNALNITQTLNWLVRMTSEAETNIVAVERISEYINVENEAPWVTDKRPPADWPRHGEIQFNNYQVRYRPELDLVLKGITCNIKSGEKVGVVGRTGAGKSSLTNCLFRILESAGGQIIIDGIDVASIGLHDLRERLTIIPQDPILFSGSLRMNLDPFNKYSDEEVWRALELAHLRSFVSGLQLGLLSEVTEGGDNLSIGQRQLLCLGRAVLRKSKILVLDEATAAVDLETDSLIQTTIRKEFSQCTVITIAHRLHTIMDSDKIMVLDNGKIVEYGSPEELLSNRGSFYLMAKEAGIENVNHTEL

T1 sequence (Q92887 whole entry): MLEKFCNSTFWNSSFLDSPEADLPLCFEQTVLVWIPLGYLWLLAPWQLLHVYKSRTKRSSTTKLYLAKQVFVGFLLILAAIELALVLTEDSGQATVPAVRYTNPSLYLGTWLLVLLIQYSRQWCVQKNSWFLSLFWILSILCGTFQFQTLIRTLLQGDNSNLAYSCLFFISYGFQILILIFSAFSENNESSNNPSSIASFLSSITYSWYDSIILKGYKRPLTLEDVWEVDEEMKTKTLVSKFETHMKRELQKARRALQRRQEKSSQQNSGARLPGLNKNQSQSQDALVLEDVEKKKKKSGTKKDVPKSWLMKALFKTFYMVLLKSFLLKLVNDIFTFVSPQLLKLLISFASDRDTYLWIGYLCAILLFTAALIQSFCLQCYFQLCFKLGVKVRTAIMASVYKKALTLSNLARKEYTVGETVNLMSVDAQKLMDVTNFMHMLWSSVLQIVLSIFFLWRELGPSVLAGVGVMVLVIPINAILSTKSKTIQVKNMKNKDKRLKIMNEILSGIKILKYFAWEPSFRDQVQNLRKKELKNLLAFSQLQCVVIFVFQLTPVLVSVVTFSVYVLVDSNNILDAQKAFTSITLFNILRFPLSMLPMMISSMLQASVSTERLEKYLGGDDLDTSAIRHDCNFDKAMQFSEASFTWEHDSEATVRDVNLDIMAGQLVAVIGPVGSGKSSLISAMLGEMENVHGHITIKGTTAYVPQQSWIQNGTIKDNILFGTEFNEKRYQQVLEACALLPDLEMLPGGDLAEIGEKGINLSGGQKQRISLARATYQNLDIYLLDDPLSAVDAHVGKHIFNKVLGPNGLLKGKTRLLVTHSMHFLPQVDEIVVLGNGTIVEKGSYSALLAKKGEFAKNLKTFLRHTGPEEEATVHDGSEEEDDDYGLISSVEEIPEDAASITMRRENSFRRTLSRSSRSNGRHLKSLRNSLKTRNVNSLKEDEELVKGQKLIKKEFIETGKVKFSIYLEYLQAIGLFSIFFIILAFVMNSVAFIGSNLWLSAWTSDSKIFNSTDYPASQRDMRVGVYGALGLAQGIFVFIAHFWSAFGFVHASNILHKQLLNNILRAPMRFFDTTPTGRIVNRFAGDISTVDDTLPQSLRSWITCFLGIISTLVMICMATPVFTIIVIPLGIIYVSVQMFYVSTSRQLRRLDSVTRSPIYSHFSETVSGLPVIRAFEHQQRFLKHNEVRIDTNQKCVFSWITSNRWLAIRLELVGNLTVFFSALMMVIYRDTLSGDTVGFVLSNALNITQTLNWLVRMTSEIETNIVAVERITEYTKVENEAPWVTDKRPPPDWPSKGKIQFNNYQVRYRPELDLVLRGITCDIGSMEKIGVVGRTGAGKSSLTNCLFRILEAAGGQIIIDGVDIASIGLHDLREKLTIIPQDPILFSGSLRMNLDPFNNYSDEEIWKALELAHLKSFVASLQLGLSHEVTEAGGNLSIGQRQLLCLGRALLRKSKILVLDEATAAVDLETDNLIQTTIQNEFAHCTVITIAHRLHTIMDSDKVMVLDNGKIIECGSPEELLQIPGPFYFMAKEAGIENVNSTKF

Row | Compound | Activity [1] | Activity [2] | Activity [3] | Activity [4] | Activity [5]
1 | CC(C)=CCC[C@]1(C)[C@@H](CC=C(C)C)C[C@]2(CC=C(C)C)C(=O)C(CC=C(C)C)=C(O)[C@@]1(C(=O)C(C)C)C2=O | inducer [+] |  |  |  | 
2 | C[C@H](CCC(=O)O)[C@H]1CC[C@H]2[C@@H]3[C@H](O)C[C@@H]4C[C@H](O)CC[C@]4(C)[C@H]3CC[C@]12C [CHENODIOL] |  | inducer [+] |  |  | 
3 | CCC1(c2ccccc2)C(=O)NC(=O)NC1=O [PHENOBARBITAL] |  |  | inducer [+] | inducer [+] | 
4 | CC(=O)[C@H]1[C@H](C#N)C[C@H]2[C@@H]3CC=C4C[C@@H](O)CC[C@]4(C)[C@H]3CC[C@@]21C [PREGNENOLONE CARBONITRILE] |  |  | inducer [+] | inducer [+] | inducer [+]
5 | CC(C)c1onc(-c2c(Cl)cccc2Cl)c1COc1ccc(/C=C/c2cccc(C(=O)O)c2)c(Cl)c1 |  | inducer [+] | inducer [+] |  | inducer [+]

From ChEMBL document CHEMBL2074404, “Regulation of multidrug resistance-associated protein 2 (ABCC2) by the nuclear receptors pregnane X receptor, farnesoid X-activated receptor, and constitutive androstane receptor” (J Biol Chem, 2002)
